Measurements taken from US20230125667A1, “NOVEL TDZD ANALOGS AS AGENTS THAT DELAY, PREVENT, OR REVERSE AGE-ASSOCIATED DISEASES AND AS ANTI-CANCER AND ANTILEUKEMIC AGENTS” (United States Government as represented by the Department …, priority 2020, published 2023).

Legend:
LOX IMVI = test: NCI-60 growth inhibition: LOX IMVI (Melanoma); format: cell-based, human; details: Homo sapiens
DU-145 = test: NCI-60 growth inhibition: DU-145 (Prostate Cancer); format: cell-based, human; details: Homo sapiens
[1] = tested on: human leukemia cell lines; test: NCI-60 growth inhibition, leukemia cell lines
T-47D = test: NCI-60 growth inhibition: T-47D (Breast Cancer); format: cell-based, human; details: Homo sapiens, T47D
IGROV1 = test: NCI-60 growth inhibition: IGROV1 (Ovarian Cancer); format: cell-based, human; details: Homo sapiens, IGROV-1
UO-31 = test: NCI-60 growth inhibition: UO-31 (Renal Cancer); format: cell-based, human; details: Homo sapiens
TK-10 = test: NCI-60 growth inhibition: TK-10 (Renal Cancer); format: cell-based, human; details: Homo sapiens
COLO 205 = test: NCI-60 growth inhibition: COLO 205 (Colon Cancer); format: cell-based, human; details: Homo sapiens
EKVX = test: NCI-60 growth inhibition: EKVX (Non-Small-Cell Lung Cancer); format: cell-based, human; details: Homo sapiens
K-562 = test: NCI-60 growth inhibition: K-562 (Leukemia); format: cell-based, human; details: Homo sapiens, K562
MDA-MB-468 = test: NCI-60 growth inhibition: MDA-MB-468 (Breast Cancer); format: cell-based, human; details: Homo sapiens; MDA-MB-468 (Breast Cancer); read-out: GI50
HT29 = test: NCI-60 growth inhibition: HT29 (Colon Cancer); format: cell-based, human; details: Homo sapiens, HT-29
HCT-116 = test: NCI-60 growth inhibition: HCT-116 (Colon Cancer); details: Homo sapiens, HCT-116
SNB-19 = test: NCI-60 growth inhibition: SNB-19 (CNS Cancer); format: cell-based, human; details: Homo sapiens
NCI-H460 = test: NCI-60 growth inhibition: NCI-H460 (Non-Small-Cell Lung Cancer); format: cell-based, human; details: Homo sapiens
SW-620 = test: NCI-60 growth inhibition: SW-620 (Colon Cancer); format: cell-based, human; details: Homo sapiens
OVCAR-5 = test: NCI-60 growth inhibition: OVCAR-5 (Ovarian Cancer); format: cell-based, human; details: Homo sapiens
MDA-MB-231/ATCC = test: NCI-60 growth inhibition: MDA-MB-231/ATCC (Breast Cancer); format: cell-based, human; details: Homo sapiens
HS 578T = test: NCI-60 growth inhibition: HS 578T (Breast Cancer); format: cell-based, human; details: Homo sapiens
NCI-H522 = test: NCI-60 growth inhibition: NCI-H522 (Non-Small-Cell Lung Cancer); details: Homo sapiens, NCI-H522
HCT-15 = test: NCI-60 growth inhibition: HCT-15 (Colon Cancer); format: cell-based, human; details: Homo sapiens
MALME-3M = test: NCI-60 growth inhibition: MALME-3M (Melanoma); format: cell-based, human; details: Homo sapiens
SR = test: NCI-60 growth inhibition: SR (Leukemia); format: cell-based, human; details: Homo sapiens
OVCAR-3 = test: NCI-60 growth inhibition: OVCAR-3 (Ovarian Cancer); format: cell-based, human; details: Homo sapiens
BT-549 = test: NCI-60 growth inhibition: BT-549 (Breast Cancer); format: cell-based, human; details: Homo sapiens
HOP-92 = test: NCI-60 growth inhibition: HOP-92 (Non-Small-Cell Lung Cancer); format: cell-based, human; details: Homo sapiens
SK-MEL-28 = test: NCI-60 growth inhibition: SK-MEL-28 (Melanoma); format: cell-based, human; details: Homo sapiens
SF-539 = test: NCI-60 growth inhibition: SF-539 (CNS Cancer); format: cell-based, human; details: Homo sapiens
M14 = test: NCI-60 growth inhibition: M14 (Melanoma); format: cell-based, human; details: Homo sapiens
SN12C = test: NCI-60 growth inhibition: SN12C (Renal Cancer); format: cell-based, human; details: Homo sapiens
RPMI-8226 = test: NCI-60 growth inhibition: RPMI-8226 (Leukemia); format: cell-based, human; details: Homo sapiens
RXF 393 = test: NCI-60 growth inhibition: RXF 393 (Renal Cancer); format: cell-based, human; details: Homo sapiens
SK-MEL-5 = test: NCI-60 growth inhibition: SK-MEL-5 (Melanoma); format: cell-based, human; details: Homo sapiens
CAKI-1 = test: NCI-60 growth inhibition: CAKI-1 (Renal Cancer); format: cell-based, human; details: Homo sapiens
MOLT-4 = test: NCI-60 growth inhibition: MOLT-4 (Leukemia); format: cell-based, human; details: Homo sapiens
OVCAR-8 = test: NCI-60 growth inhibition: OVCAR-8 (Ovarian Cancer); format: cell-based, human; details: Homo sapiens
[2] = tested on: MV4-11 cell line (myelomonocytic leukemia); details: MV4-11 cells
A498 = test: NCI-60 growth inhibition: A498 (Renal Cancer); format: cell-based, human; details: Homo sapiens
PC-3 = test: NCI-60 growth inhibition: PC-3 (Prostate Cancer); format: cell-based, human; details: Homo sapiens
MDA-MB-435 = test: NCI-60 growth inhibition: MDA-MB-435 (Melanoma); format: cell-based, human; details: Homo sapiens
HL-60(TB) = test: NCI-60 growth inhibition: HL-60(TB) (Leukemia); format: cell-based, human; details: Homo sapiens; HL-60(TB) (Leukemia); read-out: GI50
MCF7 = test: NCI-60 growth inhibition: MCF7 (Breast Cancer); format: cell-based, human; details: Homo sapiens
786-0 = test: NCI-60 growth inhibition: 786-0 (Renal Cancer); format: cell-based, human; details: Homo sapiens
ACHN = test: NCI-60 growth inhibition: ACHN (Renal Cancer); format: cell-based, human; details: Homo sapiens
NCI-H23 = test: NCI-60 growth inhibition: NCI-H23 (Non-Small-Cell Lung Cancer); format: cell-based, human; details: Homo sapiens
SK-MEL-2 = test: NCI-60 growth inhibition: SK-MEL-2 (Melanoma); format: cell-based, human; details: Homo sapiens
OVCAR-4 = test: NCI-60 growth inhibition: OVCAR-4 (Ovarian Cancer); format: cell-based, human; details: Homo sapiens
CCRF-CEM = test: NCI-60 growth inhibition: CCRF-CEM (Leukemia); format: cell-based, human; details: Homo sapiens
UACC-62 = test: NCI-60 growth inhibition: UACC-62 (Melanoma); format: cell-based, human; details: Homo sapiens
SF-268 = test: NCI-60 growth inhibition: SF-268 (CNS Cancer); format: cell-based, human; details: Homo sapiens
U251 = test: NCI-60 growth inhibition: U251 (CNS Cancer); format: cell-based, human; details: Homo sapiens, U-251
UACC-257 = test: NCI-60 growth inhibition: UACC-257 (Melanoma); format: cell-based, human; details: Homo sapiens

## C=C1C(=O)O[C@H]2[C@H]1CC/C(COC(=O)NCc1ccc(Cn3c(=O)sn(CCCC)c3=O)cc1)=C\CC[C@@]1(C)O[C@@H]21 [BSK-230]
LOX IMVI
  GI50: 1.65 µM
DU-145
  GI50: 1.81 µM
[1]; Homo sapiens
  GI50: 0.28 to 0.9 µM
[1]; NCI panel
  potency against leukemia cell lines (GI50 <1.0): highly potent against 3 of the 6 leukemia cell lines
T-47D
  GI50: 2.04 µM
IGROV1
  GI50: 1.83 µM
UO-31
  GI50: 1.45 µM
TK-10
  GI50: 1.81 µM
COLO 205
  GI50: 2 µM
EKVX
  GI50: 3.32 µM
K-562
  GI50: 0.89 µM
MDA-MB-468
  GI50: 1.73 µM
HT29
  GI50: 2.08 µM
HCT-116
  GI50: 1.36 µM
SNB-19
  GI50: 6.63 µM
NCI-H460
  GI50: 5.92 µM
SW-620
  GI50: 1.51 µM
OVCAR-5
  GI50: 1.93 µM
MDA-MB-231/ATCC
  GI50: 1.8 µM
HS 578T
  GI50: 3.24 µM
NCI-H522
  GI50: 1.19 µM
HCT-15
  GI50: 2.02 µM
MALME-3M
  GI50: 1.6 µM
SR
  GI50: 0.4 µM
OVCAR-3
  GI50: 1.59 µM
BT-549
  GI50: 1.56 µM
HOP-92
  GI50: 1.29 µM
SK-MEL-28
  GI50: 1.8 µM
SF-539
  GI50: 1.68 µM
M14
  GI50: 1.45 µM
SN12C
  GI50: 1.73 µM
RPMI-8226
  GI50: 1.48 µM
RXF 393
  GI50: 1.57 µM
SK-MEL-5
  GI50: 3.18 µM
CAKI-1
  GI50: 1.64 µM
MOLT-4
  GI50: 1.55 µM
OVCAR-8
  GI50: 3.64 µM
[2]; 24 h, 7AAD, MMB-TDZD analogs (Table 2)
  LD50, 7AAD (μM) 24 h: 0.01 µM
[2]; 24 h, Alamar blue, MMB-TDZD analogs (Table 2)
  LD50, Alamar blue (μM) 24 h: 0.30 µM
[2]; 24 h, YOPRO, MMB-TDZD analogs (Table 2)
  LD50, YOPRO (μM) 24 h: 0.02 µM
[2]; values in text
  LD50: 20 nM
A498
  GI50: 3.28 µM
PC-3
  GI50: 1.75 µM
MDA-MB-435
  GI50: 1.65 µM
HL-60(TB)
  GI50: 1.81 µM
MCF7
  GI50: 1.87 µM
786-0
  GI50: 2 µM
ACHN
  GI50: 1.67 µM
NCI-H23
  GI50: 4.19 µM
SK-MEL-2
  GI50: 4.53 µM
OVCAR-4
  GI50: 1.52 µM
CCRF-CEM
  GI50: 0.65 µM
UACC-62
  GI50: 1.62 µM
SF-268
  GI50: 4.28 µM
U251
  GI50: 41.5 µM
UACC-257
  GI50: 2.03 µM
